Data published in paper PMC7317746 (Environmental and Molecular Mutagenesis, 2020).
Read-outs that look alike come from different tables or passages of the source. Marks after values point to notes of the source that are not given here.

Columns and labels:
[1] = tested on: male Sprague Dawley rats; assay: Pig‐a assay; format: in vivo, rat
[2] = tested on: male Sprague Dawley rats; assay: Micronucleus assay in peripheral blood erythrocytes; format: in vivo, rat
[3] = tested on: peripheral blood cells; assay: Comet assay, peripheral blood cells; format: in vivo, rat
[4] = tested on: liver cells; assay: Comet assay, liver cells; format: in vivo, rat
[5] = tested on: male Sprague Dawley rats; details: 1-Month Study, 1,000 mg/kg/day
[6] = tested on: bacteria, in vitro mammalian cell and in vivo transgenic rat assays; details: ref IARC, 1990, Bergman et al., 1996; cited from earlier work
[7] = 3-Day Study, 1,000 mg/kg/day Days 1-3, Day 30
[8] = 3-Day Study, 1,000 mg/kg/day Days 1-3, Day 45
[9] = 3-Day Study, 1,000 mg/kg/day, Day -4 (pre-treatment)
[10] = 3-Day Study, 2,000 mg/kg/day Days 1-3, Day 15
[11] = 3-Day Study, 2,000 mg/kg/day Days 1-3, Day 30
[12] = 3-Day Study, 2,000 mg/kg/day Days 1-3, Day 45
[13] = 3-Day Study, 2,000 mg/kg/day, Day -4 (pre-treatment)
[14] = 1-Month Study, 250 mg/kg/day, Day 4
[15] = 1-Month Study, 250 mg/kg/day, Day 29
[16] = 1-Month Study, 500 mg/kg/day, Day 4
[17] = 1-Month Study, 500 mg/kg/day, Day 29
[18] = 1-Month Study, 1,000 mg/kg/day, Day 29
[19] = 3-Day Study, 500 mg/kg/day, Day 4
[20] = ≤1,000 mg/kg/day, up to 29 days
[21] = 3-Day Study, 500 mg/kg/day, Day 3
[22] = 3-Day Study, 1,000 mg/kg/day, Day 3
[23] = 3-Day Study, 2,000 mg/kg/day, Day 3

CC(=O)Nc1ccc(O)cc1 [acetaminophen, Acetaminophen]
Number of CD59‐Neg RBCs per 10^6 RBCs mean ± SD [1, 7]: 0.8 ± 0.4 per 10^6 RBCs
Number of CD59‐Neg RETs per 10^6 RETs mean ± SD [1, 7]: 1.5 ± 1.8 per 10^6 RETs
%RETs mean ± SD [1, 8]: 2.9 ± 0.3%
Number of CD59‐Neg RBCs per 10^6 RBCs mean ± SD [1, 8]: 1.1 ± 1.1 per 10^6 RBCs
Number of CD59‐Neg RETs per 10^6 RETs mean ± SD [1, 8]: 2.0 ± 2.1 per 10^6 RETs
%RETs mean ± SD [1, 9]: 3.6 ± 0.8%
Number of CD59‐Neg RBCs per 10^6 RBCs mean ± SD [1, 9]: 0.4 ± 0.2 per 10^6 RBCs
Number of CD59‐Neg RETs per 10^6 RETs mean ± SD [1, 9]: 1.2 ± 0.5 per 10^6 RETs
%RETs mean ± SD [1, 10]: 5.7 ± 0.4 %
Number of CD59‐Neg RBCs per 10^6 RBCs mean ± SD [1, 10]: 2.9 ± 6.1 per 10^6 RBCs
Number of CD59‐Neg RETs per 10^6 RETs mean ± SD [1, 10]: 11.3 ± 26.2 per 10^6 RETs
%RETs mean ± SD [1, 11]: 3.3 ± 0.6%
Number of CD59‐Neg RBCs per 10^6 RBCs mean ± SD [1, 11]: 32.4 ± 78.4 per 10^6 RBCs
Number of CD59‐Neg RETs per 10^6 RETs mean ± SD [1, 11]: 40.3 ± 98.3 per 10^6 RETs
%RETs mean ± SD [1, 12]: 2.4 ± 0.2 %
Number of CD59‐Neg RBCs per 10^6 RBCs mean ± SD [1, 12]: 38.5 ± 92.8 per 10^6 RBCs
Number of CD59‐Neg RETs per 10^6 RETs mean ± SD [1, 12]: 15.1 ± 36.2 per 10^6 RETs
%RETs mean ± SD [1, 13]: 3.2 ± 0.8%
Number of CD59‐Neg RBCs per 10^6 RBCs mean ± SD [1, 13]: 0.3 ± 0.1 per 10^6 RBCs
Number of CD59‐Neg RETs per 10^6 RETs mean ± SD [1, 13]: 1.2 ± 0.6 per 10^6 RETs
Mutagenicity in the rat Pig‐a model (conclusion) ([1]; 250-2,000 mg/kg/day, 3-Day, 2-Week and 1-Month Studies): not mutagenic
%MN‐RETs mean ± SD [2, 14]: 0.14 ± 0.03%
%RETs mean ± SD [2, 14]: 2.89 ± 1.89%
%MN‐RETs mean ± SD [2, 15]: 0.15 ± 0.05%
%RETs mean ± SD [2, 15]: 1.32 ± 0.25%
%MN‐RETs mean ± SD [2, 16]: 0.18 ± 0.07%
%RETs mean ± SD [2, 16]: 1.80 ± 1.98%
%MN‐RETs mean ± SD [2, 17]: 0.22 ± 0.04^ %
%RETs mean ± SD [2, 17]: 1.03 ± 0.28%
%RETs mean ± SD ([2]; 1-Month Study, 1,000 mg/kg/day, Day 4): 0.03 ± 0.02 %
%MN‐RETs mean ± SD [2, 18]: 0.59 ± 0.23^ %
%RETs mean ± SD [2, 18]: 1.48 ± 1.05%
%MN‐RETs mean ± SD [2, 19]: 0.12 ± 0.05%
%RETs mean ± SD [2, 19]: 0.89 ± 0.68%
%RETs mean ± SD ([2]; 3-Day Study, 1,000 mg/kg/day, Day 4): 0.08 ± 0.08 %
%MN‐RETs mean ± SD ([2]; 3-Day Study, 1,000 mg/kg/day, Day 4, only 1 animal analyzed): 0.21 ^a %
%RETs mean ± SD ([2]; 3-Day Study, 2,000 mg/kg/day, Day 4): 0.03 ± 0.04 %
Micronucleus endpoint in peripheral blood RETs (conclusion) [2, 20]: negative
Blood % tail intensity mean ± SD [3, 15]: 0.13 ± 0.08%
Blood % tail intensity mean ± SD [3, 17]: 0.19 ± 0.10%
Blood % tail intensity mean ± SD [3, 18]: 0.24 ± 0.15%
Blood % tail intensity mean ± SD [3, 21]: 0.31 ± 0.11%
Blood % tail intensity mean ± SD [3, 22]: 0.41 ± 0.12 %
Blood % tail intensity mean ± SD [3, 23]: 0.34 ± 0.07%
Increase in % tail intensity in peripheral blood cells versus vehicle ([3]; 3-Day Study, at 1,000 mg/kg/day, not considered biologically relevant): up to 1.6 fold
Liver % tail intensity mean ± SD [4, 15]: 0.20 ± 0.11%
Liver % tail intensity mean ± SD [4, 17]: 0.18 ± 0.06%
Liver % tail intensity mean ± SD [4, 18]: 0.34 ± 0.25 %
Liver % tail intensity mean ± SD [4, 21]: 0.22 ± 0.09%
Liver % tail intensity mean ± SD [4, 22]: 0.27 ± 0.10%
Liver % tail intensity mean ± SD [4, 23]: 0.28 ± 0.07 %
Comet endpoint in peripheral blood cells and liver cells (conclusion) [4, 20]: negative
Rats with minimal remnants of treatment‐related liver changes ([5]; after 1-month recovery period): 2/6
Rats with minimal to slight liver changes in the centrilobular region ([5]; after 1 month): 9/16
Rats with minimal to slight liver changes in the centrilobular region ([5]; after 1 week): 5/5
Mutagenicity [6]: nonmutagenic
